Among the data in ChEMBL document CHEMBL3862033 (J Med Chem, 2016) are inhibition and Ki values, retold here.

For experiment [1], the target named is T1, 5-hydroxytryptamine receptor 2C (Homo sapiens) (UniProt P28335).
T1 sequence (whole entry): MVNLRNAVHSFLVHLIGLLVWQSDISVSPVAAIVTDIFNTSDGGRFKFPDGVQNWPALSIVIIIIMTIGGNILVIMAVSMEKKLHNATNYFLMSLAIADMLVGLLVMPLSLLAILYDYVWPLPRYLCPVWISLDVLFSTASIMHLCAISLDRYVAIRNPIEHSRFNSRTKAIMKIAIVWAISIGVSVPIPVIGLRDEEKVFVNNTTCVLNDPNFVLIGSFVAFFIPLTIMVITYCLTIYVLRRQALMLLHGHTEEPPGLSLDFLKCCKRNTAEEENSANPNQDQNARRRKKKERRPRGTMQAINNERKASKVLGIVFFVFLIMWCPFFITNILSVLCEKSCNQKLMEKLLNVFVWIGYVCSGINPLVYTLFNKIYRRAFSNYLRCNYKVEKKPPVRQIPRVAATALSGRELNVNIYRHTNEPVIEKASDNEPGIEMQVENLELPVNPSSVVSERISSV
Briefly: Displacement of [3H]mesulergine from human 5-HT2CR expressed in Flp-In HEK cell membranes at 10 uM incubated for 90 mins under dark condition by microbeta scintillation counting method relative to control. To be noted: HEK293. (In a radioligand displacement assay an active substance lowers the binding of a labelled ligand.)

The target in experiment [2] is 5-hydroxytryptamine receptor 5A (Homo sapiens) (UniProt P47898). Briefly: Displacement of [3H]LSD from human 5-HT5A receptor expressed in Flp-In-CHO cell membranes incubated for 90 mins under dark condition by microbeta scintillation counting method relative to control. More on the design: concentration or dose not given beside the values.
Experiment [3] addresses 5-hydroxytryptamine receptor 6 (Homo sapiens) (UniProt P50406). Briefly: Displacement of [3H]LSD from human 5-HT6 receptor expressed in HEK cell membranes at 10 uM incubated for 90 mins under dark condition by microbeta scintillation counting method relative to control. To be noted: HEK293.
The target of experiment [4] is T2, 5-hydroxytryptamine receptor 2A (Homo sapiens, UniProt P28223). Briefly: Displacement of [3H]ketanserin from human 5-HT2A receptor expressed in HEK-T cell membranes at 10 uM incubated for 90 mins under dark condition by microbeta scintillation counting method relative to control.
The target of experiment [5] is T2, 5-hydroxytryptamine receptor 2A. Briefly: Displacement of [3H]ketanserin from human 5-HT2A receptor expressed in HEK-T cell membranes incubated for 90 mins under dark condition by microbeta scintillation counting method.
Experiment [6] concerns the target 5-hydroxytryptamine receptor 7 (Homo sapiens) (UniProt P34969). Briefly: Displacement of [3H]LSD from human 5-HT7A receptor expressed in HEK cell membranes at 10 uM incubated for 90 mins under dark condition by microbeta scintillation counting method relative to control. The following applies: HEK293.
Experiment [7] has as its target T3, 5-hydroxytryptamine receptor 2B (Homo sapiens, UniProt P41595). The following applies: HEK293, at 10 µM.
The target in experiment [8] is T4, 5-hydroxytryptamine receptor 1A (Homo sapiens) (UniProt P08908).
T4 sequence (whole entry): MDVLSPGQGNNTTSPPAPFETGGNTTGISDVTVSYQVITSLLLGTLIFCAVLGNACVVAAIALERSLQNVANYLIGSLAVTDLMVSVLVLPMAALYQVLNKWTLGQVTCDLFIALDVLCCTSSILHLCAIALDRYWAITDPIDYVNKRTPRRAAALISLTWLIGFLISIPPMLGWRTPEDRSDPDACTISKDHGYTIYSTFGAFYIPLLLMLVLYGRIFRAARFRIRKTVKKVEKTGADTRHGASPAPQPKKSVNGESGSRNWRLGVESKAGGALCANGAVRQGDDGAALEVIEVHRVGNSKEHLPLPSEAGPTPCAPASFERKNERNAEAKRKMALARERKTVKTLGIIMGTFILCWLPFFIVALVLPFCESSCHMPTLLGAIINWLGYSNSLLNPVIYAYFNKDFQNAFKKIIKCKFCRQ
Briefly: Displacement of [3H]WAY100635 from human 5-HT1AR expressed in CHO cell membranes at 10 uM incubated for 90 mins under dark condition by microbeta scintillation counting method relative to control.

Experiment [9] deals with 5-hydroxytryptamine receptor 4 (Homo sapiens) (UniProt Q13639). Briefly: Displacement of [3H]GR113808 from human 5-HT4 receptor at 10 uM incubated for 90 mins under dark condition by microbeta scintillation counting method relative to control.
Experiment [10] deals with T5, 5-hydroxytryptamine receptor 3A (Homo sapiens) (UniProt P46098).
T5 sequence (whole entry): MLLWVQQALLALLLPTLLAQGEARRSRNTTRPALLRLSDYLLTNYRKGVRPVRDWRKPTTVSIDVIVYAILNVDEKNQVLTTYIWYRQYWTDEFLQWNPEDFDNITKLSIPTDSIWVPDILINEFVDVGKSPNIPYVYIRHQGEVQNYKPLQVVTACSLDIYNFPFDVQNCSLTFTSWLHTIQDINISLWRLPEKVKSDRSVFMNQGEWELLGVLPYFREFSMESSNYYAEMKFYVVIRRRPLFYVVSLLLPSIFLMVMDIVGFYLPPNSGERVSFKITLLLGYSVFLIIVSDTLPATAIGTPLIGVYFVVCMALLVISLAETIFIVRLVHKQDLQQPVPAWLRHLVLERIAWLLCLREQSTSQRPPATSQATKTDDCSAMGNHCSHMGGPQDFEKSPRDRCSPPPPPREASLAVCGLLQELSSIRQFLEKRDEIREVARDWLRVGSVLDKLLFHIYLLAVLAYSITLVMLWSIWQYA
Briefly: Displacement of [3H]GR65630 from human 5-HT3 receptor expressed in HEK-T cell membranes at 10 uM incubated for 90 mins under dark condition by microbeta scintillation counting method relative to control.

The target in experiment [11] is 5-hydroxytryptamine receptor 1D (Homo sapiens) (UniProt P28221). Briefly: Displacement of [3H]5-CT from human 5-HT1D receptor expressed in HEK-T cell membranes at 10 uM incubated for 90 mins under dark condition by microbeta scintillation counting method relative to control.
Experiment [12] has as its target 5-hydroxytryptamine receptor 1B (Homo sapiens) (UniProt P28222). Briefly: Displacement of [3H]5-CT from human 5-HT1BR expressed in HEK cell membranes at 10 uM incubated for 90 mins under dark condition by microbeta scintillation counting method relative to control. To be noted: HEK293.
The target of experiment [13] is 5-hydroxytryptamine receptor 1E (Homo sapiens) (UniProt P28566). Briefly: Displacement of [3H]5-HT from human 5-HT1E receptor expressed in HEK cell membranes at 10 uM incubated for 90 mins under dark condition by microbeta scintillation counting method relative to control. To be noted: HEK293.
In experiment [14] the target is T6, 5-hydroxytryptamine receptor 2C (Homo sapiens, UniProt P28335).
T6 sequence (P28335 whole entry): T1 sequence (whole entry)
Briefly: Displacement of [3H]mesulergine from human 5-HT2CR expressed in Flp-In HEK cell membranes incubated for 90 mins under dark condition by microbeta scintillation counting method. The arrangement: species or system HEK293.

The next experiment addresses T7, Adenosine receptor A3 (Homo sapiens, UniProt P0DMS8).
T7 sequence (P0DMS8 whole entry): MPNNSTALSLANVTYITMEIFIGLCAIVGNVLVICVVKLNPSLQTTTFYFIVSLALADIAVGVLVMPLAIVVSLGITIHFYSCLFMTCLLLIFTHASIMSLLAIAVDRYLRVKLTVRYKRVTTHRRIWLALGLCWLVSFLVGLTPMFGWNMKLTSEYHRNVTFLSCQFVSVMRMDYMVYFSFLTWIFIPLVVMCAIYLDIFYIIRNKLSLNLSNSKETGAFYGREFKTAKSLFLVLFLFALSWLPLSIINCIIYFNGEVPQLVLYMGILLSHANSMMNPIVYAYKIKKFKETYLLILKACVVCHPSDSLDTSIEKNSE
Briefly: Displacement of [125l]N 6-(4-amino-3-iodobenzyl)adenosine-5'-N-methyluronamide from recombinant human A3AR expressed in CHO cell membranes after 60 mins by gamma counting method.

The next experiment concerns the target T8, Adenosine receptor A1 (Homo sapiens, UniProt P30542).
T8 sequence (P30542 whole entry): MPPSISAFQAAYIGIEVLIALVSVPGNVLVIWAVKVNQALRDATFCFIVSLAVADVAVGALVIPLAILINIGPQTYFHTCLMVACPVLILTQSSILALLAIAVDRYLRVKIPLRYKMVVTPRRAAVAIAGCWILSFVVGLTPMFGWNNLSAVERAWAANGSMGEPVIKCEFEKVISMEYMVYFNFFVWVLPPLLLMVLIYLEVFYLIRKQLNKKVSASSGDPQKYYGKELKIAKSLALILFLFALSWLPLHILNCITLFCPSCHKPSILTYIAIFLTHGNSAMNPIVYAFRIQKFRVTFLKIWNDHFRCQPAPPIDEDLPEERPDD
Briefly: Displacement of [3H]N6-phenylisopropyladenosine from recombinant human A1AR expressed in CHO cell membranes after 60 mins by liquid scintillation counting method.

The target of experiment [15] is T3, 5-hydroxytryptamine receptor 2B. Briefly: biochemical. It counts as cell-based, HEK293.

A word on the inhibition: it is the change of the read-out against control, counted positive when it falls. Broadly, the pKi is the negative decadic logarithm of the Ki, by convention in mol/L.

Each structure is given as a SMILES string. pKi: −log10 of the molar value.

T3 sequence (P41595 whole entry): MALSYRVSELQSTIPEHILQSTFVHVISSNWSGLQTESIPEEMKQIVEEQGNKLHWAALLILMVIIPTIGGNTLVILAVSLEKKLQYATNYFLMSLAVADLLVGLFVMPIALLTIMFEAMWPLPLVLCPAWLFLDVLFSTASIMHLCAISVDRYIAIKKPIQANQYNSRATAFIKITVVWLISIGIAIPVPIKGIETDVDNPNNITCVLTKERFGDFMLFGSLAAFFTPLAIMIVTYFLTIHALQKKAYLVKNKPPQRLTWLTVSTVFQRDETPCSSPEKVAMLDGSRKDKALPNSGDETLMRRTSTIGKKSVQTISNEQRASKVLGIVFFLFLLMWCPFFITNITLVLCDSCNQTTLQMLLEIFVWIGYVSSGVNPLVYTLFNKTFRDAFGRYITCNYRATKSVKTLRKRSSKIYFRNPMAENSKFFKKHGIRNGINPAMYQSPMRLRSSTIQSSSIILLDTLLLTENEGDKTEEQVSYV
Chain of 5-hydroxytryptamine receptor 7 (Homo sapiens) (P34969 whole entry): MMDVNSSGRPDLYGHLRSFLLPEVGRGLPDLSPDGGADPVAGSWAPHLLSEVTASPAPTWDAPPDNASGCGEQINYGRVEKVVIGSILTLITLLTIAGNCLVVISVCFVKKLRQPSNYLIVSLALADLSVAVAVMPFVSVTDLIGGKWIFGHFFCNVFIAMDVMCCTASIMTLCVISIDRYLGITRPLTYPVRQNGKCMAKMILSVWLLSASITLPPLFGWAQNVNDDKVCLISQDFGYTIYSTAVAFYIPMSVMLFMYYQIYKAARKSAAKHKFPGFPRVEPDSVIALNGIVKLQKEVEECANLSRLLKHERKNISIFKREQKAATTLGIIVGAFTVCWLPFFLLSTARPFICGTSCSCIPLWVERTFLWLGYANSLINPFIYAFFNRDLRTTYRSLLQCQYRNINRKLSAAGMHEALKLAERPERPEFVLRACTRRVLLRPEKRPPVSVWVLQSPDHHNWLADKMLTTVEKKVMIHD
Chain of 5-hydroxytryptamine receptor 4 (Homo sapiens) (Q13639 whole entry): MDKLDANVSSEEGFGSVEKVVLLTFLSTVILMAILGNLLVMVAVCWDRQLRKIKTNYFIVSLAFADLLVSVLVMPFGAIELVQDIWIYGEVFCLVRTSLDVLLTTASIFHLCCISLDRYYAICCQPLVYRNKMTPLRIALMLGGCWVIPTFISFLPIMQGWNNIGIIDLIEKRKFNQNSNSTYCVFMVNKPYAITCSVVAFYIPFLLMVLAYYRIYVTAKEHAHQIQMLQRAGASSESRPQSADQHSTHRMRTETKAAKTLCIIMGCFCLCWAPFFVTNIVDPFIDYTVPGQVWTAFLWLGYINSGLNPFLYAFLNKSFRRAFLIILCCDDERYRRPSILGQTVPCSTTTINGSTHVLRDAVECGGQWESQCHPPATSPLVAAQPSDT
Chain of 5-hydroxytryptamine receptor 1B (Homo sapiens) (P28222 whole entry): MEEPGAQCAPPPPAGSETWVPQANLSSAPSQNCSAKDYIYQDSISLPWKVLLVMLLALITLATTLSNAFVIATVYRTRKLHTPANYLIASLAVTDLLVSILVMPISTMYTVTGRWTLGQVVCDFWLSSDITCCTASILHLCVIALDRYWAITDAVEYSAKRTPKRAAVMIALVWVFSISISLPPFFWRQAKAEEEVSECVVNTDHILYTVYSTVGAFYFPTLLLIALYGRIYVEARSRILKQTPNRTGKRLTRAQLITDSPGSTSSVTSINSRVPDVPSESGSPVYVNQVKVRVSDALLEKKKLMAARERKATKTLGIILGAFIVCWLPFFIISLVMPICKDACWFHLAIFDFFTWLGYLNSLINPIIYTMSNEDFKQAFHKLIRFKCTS
Chain of 5-hydroxytryptamine receptor 1E (Homo sapiens) (P28566 whole entry): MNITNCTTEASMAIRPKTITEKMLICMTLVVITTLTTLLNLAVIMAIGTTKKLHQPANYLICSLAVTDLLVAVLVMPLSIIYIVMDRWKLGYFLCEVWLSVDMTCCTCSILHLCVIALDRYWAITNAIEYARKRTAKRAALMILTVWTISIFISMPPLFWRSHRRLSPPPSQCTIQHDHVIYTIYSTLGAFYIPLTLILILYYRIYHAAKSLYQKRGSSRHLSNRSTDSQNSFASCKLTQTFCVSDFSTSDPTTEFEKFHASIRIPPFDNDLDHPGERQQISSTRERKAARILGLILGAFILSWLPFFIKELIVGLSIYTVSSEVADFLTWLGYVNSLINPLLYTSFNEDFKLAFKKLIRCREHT
Chain of 5-hydroxytryptamine receptor 6 (Homo sapiens) (P50406 whole entry): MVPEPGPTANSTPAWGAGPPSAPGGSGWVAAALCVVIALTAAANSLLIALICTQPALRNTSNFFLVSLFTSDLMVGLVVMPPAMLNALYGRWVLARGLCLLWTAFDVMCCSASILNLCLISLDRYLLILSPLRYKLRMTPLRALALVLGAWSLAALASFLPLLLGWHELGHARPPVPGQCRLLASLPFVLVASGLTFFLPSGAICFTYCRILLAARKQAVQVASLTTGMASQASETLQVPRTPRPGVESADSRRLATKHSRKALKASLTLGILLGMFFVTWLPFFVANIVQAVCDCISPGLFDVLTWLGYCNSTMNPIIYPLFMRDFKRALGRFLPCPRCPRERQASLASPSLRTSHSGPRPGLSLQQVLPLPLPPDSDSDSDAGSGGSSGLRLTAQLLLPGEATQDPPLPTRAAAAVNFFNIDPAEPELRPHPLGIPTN
T2 sequence (P28223 whole entry): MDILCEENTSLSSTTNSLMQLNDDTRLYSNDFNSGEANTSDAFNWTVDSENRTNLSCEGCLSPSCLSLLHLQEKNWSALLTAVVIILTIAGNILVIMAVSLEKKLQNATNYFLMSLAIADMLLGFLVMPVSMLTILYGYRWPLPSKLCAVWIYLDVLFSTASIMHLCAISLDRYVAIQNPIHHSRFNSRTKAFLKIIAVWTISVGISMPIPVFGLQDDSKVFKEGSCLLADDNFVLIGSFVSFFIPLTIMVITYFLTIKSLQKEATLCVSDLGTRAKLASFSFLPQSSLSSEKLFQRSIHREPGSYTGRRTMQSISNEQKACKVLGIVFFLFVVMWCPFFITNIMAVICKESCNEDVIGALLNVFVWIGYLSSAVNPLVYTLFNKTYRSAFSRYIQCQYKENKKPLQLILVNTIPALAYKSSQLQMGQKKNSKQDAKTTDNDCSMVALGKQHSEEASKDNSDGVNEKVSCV
Chain of 5-hydroxytryptamine receptor 1D (Homo sapiens) (P28221 whole entry): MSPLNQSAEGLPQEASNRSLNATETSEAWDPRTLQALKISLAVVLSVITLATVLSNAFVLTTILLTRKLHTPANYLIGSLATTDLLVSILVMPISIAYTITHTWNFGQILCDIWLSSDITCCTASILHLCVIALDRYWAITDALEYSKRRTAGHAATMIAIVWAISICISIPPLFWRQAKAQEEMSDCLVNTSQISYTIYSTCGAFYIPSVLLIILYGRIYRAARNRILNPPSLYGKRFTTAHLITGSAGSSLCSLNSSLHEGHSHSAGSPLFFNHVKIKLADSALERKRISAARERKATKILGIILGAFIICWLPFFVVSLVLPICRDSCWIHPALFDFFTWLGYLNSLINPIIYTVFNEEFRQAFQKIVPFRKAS
Chain of 5-hydroxytryptamine receptor 5A (Homo sapiens) (P47898 whole entry): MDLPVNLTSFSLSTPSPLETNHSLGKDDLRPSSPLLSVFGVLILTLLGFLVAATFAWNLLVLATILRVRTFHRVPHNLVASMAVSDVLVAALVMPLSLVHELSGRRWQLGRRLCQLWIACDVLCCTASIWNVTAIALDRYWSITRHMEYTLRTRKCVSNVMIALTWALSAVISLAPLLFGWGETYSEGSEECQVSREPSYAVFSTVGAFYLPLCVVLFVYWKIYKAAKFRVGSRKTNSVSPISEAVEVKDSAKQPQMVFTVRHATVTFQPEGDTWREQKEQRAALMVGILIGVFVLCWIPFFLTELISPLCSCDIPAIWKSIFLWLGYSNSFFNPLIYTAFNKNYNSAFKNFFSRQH

In the case of `CNC(=O)[C@H]1O[C@@H](n2cnc3c(N)ncnc32)[C@H](O)[C@@H]1O`, the inhibition is less than 10% in experiment [1]; less than 50% in experiment [2]; less than 50% in experiment [3]; less than 10% in experiment [4]; less than 50% in [6]; less than 10% in experiment [7]. The inhibition in experiment [8], in [9], in [10], in experiment [11], in experiment [12] and in experiment [13] was less than 50% in each case. The pKi in [5] is less than 5.00.

For the compound `CC(C)[C@H](Nc1nc(Cl)nc2c1ncn2[C@H]1[C@H](O)[C@H](O)[C@]2(CO)C[C@H]12)C1CC1`, the pKi was 6.17 in experiment [14], less than 5.00 in [5], 5.46 on Adenosine receptor A3 and 6.98 on Adenosine receptor A1. Also, the inhibition in experiment [1] was greater than 50%; in experiment [2] it was less than 50%; in experiment [3] it was less than 50%; in [4], less than 10%; in experiment [6], less than 50%; in [8] it was less than 50%. In addition, the inhibition in experiment [9], in [10], in [11], in [12] and in [13] was less than 50% throughout.

Consider `Nc1nc(Cl)nc2c1ncn2[C@@H]1O[C@H](CO)[C@@H](O)[C@H]1O`, for which the inhibition is less than 10% in [1]; less than 50% in experiment [2]; less than 50% in experiment [3]; 46% in experiment [4]; less than 50% in experiment [6]; less than 10% in experiment [7]. Moreover, the inhibition in experiment [8], in [9], in experiment [10], in [11], in [12] and in experiment [13] was less than 50% throughout. Also, the pKi in [5] is less than 5.00; on Adenosine receptor A1 it was 8.55.

For `O[C@@H]1[C@H](O)[C@@H]2C[C@@H]2[C@H]1n1cnc2c(NC(C3CC3)C3CC3)nc(Cl)nc21`, the pKi is 6.17 in [15] and less than 5.00 in [5]. In [4], this compound yielded an inhibition of less than 10%.

Turning to `OC[C@H]1O[C@@H](n2cnc3c(NC(C4CC4)C4CC4)ncnc32)[C@H](O)[C@@H]1O`, the inhibition is 11% in experiment [1]; less than 50% in [2]; less than 50% in [3]; less than 10% in [4]; less than 50% in experiment [6]; 38% in experiment [7]. Further, the inhibition in experiment [8], in experiment [9], in experiment [10], in experiment [11], in experiment [12] and in experiment [13] was less than 50% each time. Besides, the pKi in experiment [5] was less than 5.00.

With `Nc1nc(Cl)nc2c1ncn2[C@H]1[C@H](O)[C@H](O)[C@]2(CO)C[C@H]12`, the inhibition was less than 10% in experiment [1]; less than 50% in [2]; less than 50% in experiment [3]; less than 10% in experiment [4]; less than 50% in experiment [6]; greater than 50% in experiment [7]. Further, the inhibition in [8], in experiment [9], in experiment [10], in experiment [11], in experiment [12] and in experiment [13] was less than 50% in each case. Moreover, the negative-log Ki (pKi) in experiment [15] and in experiment [5] was less than 5.00 each time.

As to `CNC(=O)[C@H]1O[C@@H](n2cnc3c(NCc4cccc(I)c4)ncnc32)[C@H](O)[C@@H]1O` [IB-MECA], the inhibition in experiment [1] was greater than 50%; in experiment [2], less than 50%; in experiment [3], less than 50%; in experiment [4], less than 10%; in experiment [6] it was less than 50%; in experiment [7], greater than 50%. For the same compound, the inhibition in [8], in [9], in experiment [10], in [11], in experiment [12] and in experiment [13] was less than 50% each time. The compound further gave a pKi in [5] of less than 5.00.

Take `CNC(=O)[C@H]1O[C@@H](n2cnc3c(NCc4cccc(I)c4)nc(Cl)nc32)[C@H](O)[C@@H]1O` [NAMODENOSON]: the pKi in [14] is 5.00; in experiment [15] it was 5.56; in experiment [5], less than 5.00. Further, the inhibition is greater than 50% in experiment [1] and 30% in experiment [4].
